This assay relates to Kochia (Bassia scoparia). The assay is described as follows: Greenhouse post emergence treatment, visual herbicidal control on a scale from 0 to 100. In kind it is in vivo. An excerpt: Synergism can be described as an interaction where the combined effect of two or more compounds is greater than the sum of the individual effects of each of the compounds. The presence of a synergistic effect in terms of percent control, between two mixing partners (X and Y) can be calculated using the Colby equation (Colby, S. R., 1967, Calculating Synergistic and Antagonistic Responses in Herbicide Combinations, Weeds, 15, 21-22):
When the observed combined control effect is greater than the expected (calculated) combined control effect (E), then the combined effect is synergistic.
Weeds included Kochia (Bassia scoparia). However, the herbicidal effect afforded by the compounds, mixtures or compositions is not limited to these species. The analysis of synergism or antagonism between the mixtures or compositions was determined using Colby's equation.
Pots with 0.3 L of volume were filled with soil (SunGro Horticulture, Agawam, MA 01001) to grow one plant per pot in the greenhouse until the desired developmental stage. Environmental conditions inside the greenhouse were set up for 25° C., 75% relative humidity, and 12 h light day^−1 with natural sunlight or 500 […] PAR for cloudy days. […] During this time, the plants were tended, and their response to the individual treatments was evaluated. […]

In the case of `CCOC(=O)COc1cc(-c2nn(C)c(OC(F)F)c2Cl)c(F)cc1Cl` [Pyraflufen, pyraflufen-ethyl], the “Herbicidal activity against Kochia (21 DAT) Found” value (Pyraflufen 0.2 g ai/ha alone, visual scale 0 to 100, mean of three replications) was found to be 32.

As for `CP(=O)(O)CCC(N)C(=O)O` (racemic) [Glufosinate, (2RS)-2-amino-4-[hydroxy(methyl)phosphinoyl]butyric acid], the “Herbicidal activity against Kochia (21 DAT) Found” value (Glufosinate 420 g ai/ha alone, visual scale 0 to 100 (100 = complete destruction), mean of three replications) is 25.

Values taken from US12557815B2, “Herbicide combinations comprising glufosinate and pyraflufen-ethyl” (BASF SE, priority 2020, dated 2026).
